Assay results published in patent US9713608B2, “Method for topically treating actinic keratosis on the trunk (except chest) or extremities with ingenol 3-(3,5-diethylisoxazole-4-carboxylate)” (LEO Laboratories Limited, priority 2013, dated 2017).

Tests used:
[1] = Phase 1 exploratory trial: safety and tolerability of topical gel on forearms of subjects with actinic keratosis; format: in vivo, human; settings: for mean composite LSR scores, time of peak: 8-week trial period; for mean composite LSR scores at Week 8: Week 8, relative to baseline; for number of SAEs of SCC within treated areas: four SAEs in three subjects, about three times more fields treated with ingenol 3-(3,5-diethylisoxazole-4-carboxylate); for most common treatment related AEs: human, in vivo
Source text: Local skin reactions (LSRs) occurs sometimes in the treated area. Often LSRs are quantified by a scale evaluating the following types of skin reactions: erythema, flaking/scaling, crusting, swelling, vasiculation/pustulation, and erosion/ulceration which are categorized into categories 0-4 depending on the severity of the reactions.
A Phase 1 exploratory trial evaluating safety and tolerability of topical administration of ingenol 3-(3,5-diethylisoxazole-4-carboxylate) gel, 0.025%, 0.05% and 0.075% compared to ingenol mebutate gel 0.05% applied on two consecutive days to four separate 25 cm^2 treatment areas on the forearms of subjects with actinic keratosis (field therapy). A single-centre, randomised, active controlled, intra-patient controlled, investigator blind trial.
It is presently believed that ingenol 3-(3,5-diethylisoxazole-4-carboxylate) has a higher efficacy and/or milder LSR profile than ingenol mebutate.
This was a phase 1, single-centre, randomised, active controlled, intra-patient controlled, investigator blinded trial with intra-individual comparisons to explore the safety and tolerability of ingenol 3-(3,5-diethylisoxazole-4-carboxylate) gel 0.025%, 0.05%, and 0.075% compared to ingenol mebutate gel 0.05% applied once daily for two consecutive days on the forearms of subjects with AK.
(§1) The trial population included 40 subjects at least 18 years of age with 12-16 clinically typical, visible, discrete, non-keratotic AK lesions (referred to as selected AK lesions) suitable for RCM within four separate 25 cm^2 (5×5 cm) selected treatment areas (STAs) on the dorsal aspects of the forearms. Each STA was to be separated by at least 5 cm from other STAs.
For each eligible subject, the four STAs are randomised to receive one of four of the investigational product (IP or IPs): • ingenol 3-(3,5-diethylisoxazole-4-carboxylate) gel 0.025% • ingenol 3-(3,5-diethylisoxazole-4-carboxylate) gel 0.05% • ingenol 3-(3,5-diethylisoxazole-4-carboxylate) gel 0.075% • Ingenol mebutate gel 0.05%
Each IP is to be applied to one of the four STAs on each subject according to random assignment on two consecutive days (Day 1 and Day 2). This ensured that all subjects are treated with the four products on both treatment days. The trial consisted of three periods, a screening period, a treatment period, and an observation and follow-up period.
Each IP is applied to one of the four STAs on each subject according to random assignment on two consecutive days (Day 1 and Day 2). The IPs are applied by a specified investigational staff member in the clinical study protocol. Subjects are instructed about post-treatment care and provided with a patient safety and study medication instruction sheet.

[2] = test system: actinic keratosis (AK) lesions; test: Phase 1 exploratory trial: treatment response of AK lesions (clinical count and Reflectance Confocal Microscopy); format: in vivo, human; settings: for RCM findings in lesions: overall, clinically visible AK lesions and subclinical lesions
Source text: To evaluate treatment responses on AKs of the three concentrations of ingenol 3-(3,5-diethylisoxazole-4-carboxylate) gel compared to the ingenol mebutate gel as assessed by reduction in number of clinically visible selected AK lesions eight weeks after treatment.
To evaluate treatment responses on AKs of the three concentrations of ingenol 3-(3,5-diethylisoxazole-4-carboxylate) gel compared to the ingenol mebutate gel as assessed by Reflectance Confocal Microscopy (RCM) scoring of the clinically visible selected AK lesions before and eight weeks after treatment.
as §1
Whenever possible, four visible and discrete selected AK lesions are identified within each of the four STAs. However, one STA with three selected AK lesions is acceptable for a subject. The selected AK lesions are assessed by RCM. If a selected AK lesion could not be confirmed as an AK lesion by RCM, another STA with selected AK lesions has to be identified. In addition, each subject is to have one subclinical AK lesion suitable for RCM within each STA (these subclinical AKs are referred to as selected subclinical AK lesions).
Treatment efficacy is included as a secondary endpoint and assessed by change in number of clinically visible AK lesions from baseline to 8 weeks after treatment and change in RCM scores from baseline to 8 weeks after treatment.

[3] = test system: dermal tumours; test: in vivo studies in mice, effects on dermal tumours; settings: compared to ingenol mebutate
Source text: The exact mechanism of action of ingenol 3-(3,5-diethylisoxazole-4-carboxylate) continues to be investigated, but it is believed that ingenol 3-(3,5-diethylisoxazole-4-carboxylate) has a dual mechanism of action inducing cell death as well as stimulation of immune response.

[4] = difficult to treat versus more easily treated anatomical regions; cited from earlier work

Structure (SMILES) | mean composite LSR scores, time of peak [1] | mean composite LSR scores at Week 8 [1] | incidence of AEs inside STAs ([1]; between treatments) | number of SAEs of SCC within treated areas [1] | most common treatment related AEs [1] | events of Bowen's disease inside treated area ([1]; possibly related AE, reclassified to SAE by sponsor) | change of RCM scores ([2]; baseline to 8 weeks, between the two actives) | RCM findings in lesions [2] | efficacy in eliminating dermal tumours [3] | local skin reactions after a given dose [4]
CCc1noc(CC)c1C(=O)O[C@H]1C(C)=C[C@]23C(=O)[C@@H](C=C(CO)[C@@H](O)[C@]12O)[C@H]1[C@@H](C[C@H]3C)C1(C)C [ingenol 3-(3,5-diethylisoxazole-4-carboxylate)] | peaked at Week 1 | below baseline at Week 8 | no difference | Two | pruritus, burning sensation and tenderness | one | no difference | honeycomb pattern of lesions improved, keratosis decreased, and the thickness of stratum corneum and viable epidermis decreased | more efficacious than ingeno mebutate | 
C/C=C(/C)C(=O)O[C@H]1C(C)=C[C@]23C(=O)[C@@H](C=C(CO)[C@@H](O)[C@]12O)[C@H]1[C@@H](C[C@H]3C)C1(C)C [ingenol mebutate, reference compound] | peaked at Week 1 | below baseline at Week 8 |  | two | pruritus, burning sensation and tenderness |  |  | honeycomb pattern of lesions improved, keratosis decreased, and the thickness of stratum corneum and viable epidermis decreased |  | milder on difficult to treat anatomical regions
